Experimental data taken from patent publication US20140234350A1, “OVARIAN CANCER VACCINES AND VACCINATION METHODS” (Cedars-Sinai Medical Center, priority 2013, published 2014).

Tested on: antigen-specific CTLs (CD8+ T cells) against T2 cells pulsed with CD133 HLA-A2 peptides
Assay: IFN-γ ELISPOT assay of antigen-specific T cell response
Assay type: cell-based, human
Details: peptide-induced CTLs co-cultured with T2 cells pulsed with 10 μg/ml of peptides for 20 hours, compared with T2 control (no peptides); FIG. 3
Description: To test this hypothesis, effector CD8^+ T cells were isolated and co-cultured with HLA-A2+ DC pulsed with CD133 peptides to induce antigen-specific CTLs. Antigens-specific T cell responses were evaluated by an IFN-γ ELISPOT assay.
Human monocyte-derived DC was generated using previously described methods. Briefly, monocytes were isolated from PBMC by magnetic immunoselection using EasySep human monocyte enrichment kit (Stem Cell Technologies) in accordance with the manufacturer's instructions and then cultured at […] in 20 ml of GMP CellGenix DC serum-free medium (Cat#20801-0500, Cellgenix) supplemented with 1000 unit/ml of recombinant human GM-CSF (Cat#AF-300-03, Peprotech, Inc) and recombinant human IL-4(Cat# AF-200-04, Peprotech, Inc). Cells were harvested after 3 or 6 days of culture. The DCs were washed and plated in 6-well plates at a concentration of 5×10^6 cells/well IFN-γ (1000 unit/ml) and monophosphoryl lipid A (MPLA, 20-50 μg/ml) was added into the wells to mature the DC for 24 hr or 48 hrs. Prior to some assays, DC was frozen and stored into liquid nitrogen.
In order to evaluate antigen-specific immune responses, CD8^+ T cells were isolated from fresh or frozen apheresis by positive selection using Dynabeads® CD8 Positive Isolation Kit (Life Technologies, Grand Island, N.Y.) and co-cultured with autologous mDC for four weeks. DCs were added weekly. Briefly, mDC was pulsed with synthetic peptides ([…]) for 6-8 hours at 37° C., and then treated with 20 μg/ml Mitomycin C (Sigma-Aldrich, St. Louis, Mo.) for 25 min at 37° C. and 5% CO2. […]
Antigen-specific immune responses were evaluated by the IFN-γ Elispot kit (BD Biosciences) following previously described methods. […] The colored spots, representing cytokine-producing cells, were counted under a dissecting microscope. The results were evaluated by an automated ELISPOT reader system using KS ELISPOT 4.3 software.

Sequence	antigen-specific T cell response (IFN-γ ELISPOT)
FLLPALIFAV (listed as Homo sapiens) [CD133p804, CD133 HLA-A2 peptide, position 804-813]	can efficiently recognize T2 pulsed with these antigens and boost the T cell immune response
ILSAFSVYV (listed as Homo sapiens) [CD133p405, CD133 HLA-A2 peptide, position 405-413]	can efficiently recognize T2 pulsed with these antigens and boost the T cell immune response
YLQWIEFSI (listed as Homo sapiens) [CD133p753, CD133 HLA-A2 peptide]	can efficiently recognize T2 pulsed with these antigens and boost the T cell immune response
